Laboratory results: US20160185797A1, “ALKYNYL ALCOHOLS AND METHODS OF USE” (Genentech, Inc., priority 2013, published 2016)

How the values were obtained:
[1] = molecular target: T1, nuclear factor-kappa B (NF-kB)-inducing kinase (NIK) (Homo sapiens, UniProt Q99558); assay: NIK enzyme inhibition assay (Transcreener ADP fluorescence polarization, NIK ADP-FP); type: biochemical
T1 construct: made in house; host or cells: baculovirus-infected insect cells
Experimental: NIK Enzyme Inhibition Assay:
The ability of the nuclear factor-kappa B (NF-kB)-inducing kinase (NIK) to catalyze the hydrolysis of adenosine-5′-triphosphate (ATP) was monitored using the Transcreener ADP (adenosine-5′-diphosphate) assay (BellBrook Labs). […] Reactions were quenched by the addition of 20 mM 2,2′,2″,2′″-(ethane-1,2-diyldinitrilo)tetraacetic acid and 0.01% Brij 35. The tracer bound to the antibody was displaced by the ADP generated during the NIK reaction, which causes a decrease in fluorescence polarization that was measured by laser excitation at 633 nm with a Fluorescence Correlation Spectroscopy Plus reader (Evotec AG). Equilibrium dissociation constant (Ki) values for NIK inhibitors are calculated from plots of activity vs. inhibitor concentration using Morrison's quadratic equation that accounts for the potential of tight binding, and by also applying the conversion factor that accounted for competitive inhibition and the concentration of substrate used in the assay relative to its Michaelis constant (Km).

[2] = system: REL-A (p65) nuclear translocation in HeLa cells; assay: REL-A (p65) nuclear translocation assay in HeLa cells, TNF-α stimulated (classical NF-kB signaling), high content imaging; type: cell-based; settings: Homo sapiens, HeLa, compound 4.5 h, then 10 ng/mL TNF-α for 30 minutes, read-out: REL-A HeLa Transloc Assay (IC50)
Outline: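 HeLa cells in medium with 10% fetal bovine serum were exposed to compounds (0.2% DMSO final) for 4.5 hours, then stimulated with 10 ng/mL TNF-α for 30 minutes. After fixation in 4% paraformaldehyde and permeabilization with 0.1% Triton X-100, cells were stained with 400 ng/mL anti-REL-A (p65) antibody, an Alexa488 secondary and DRAQ5. Opera imaging quantified the nuclear-to-cytoplasmic signal ratio to give IC50.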

[3] = system: p52 (NF-kB2) nuclear translocation in HeLa cells; assay: p52 (NF-kB2) nuclear translocation assay in HeLa cells, anti-lymphotoxin beta receptor antibody stimulated (non-classical NF-kB signaling), high content imaging; type: cell-based; settings: Homo sapiens, 100 ng/mL anti-lymphotoxin beta receptor antibody for 5 hours, read-out: p52 HeLa Transloc Assay (IC50)
Outline: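 HeLa cells in 10% FBS medium were treated with compound (0.2% DMSO final) and stimulated with 100 ng/mL anti-lymphotoxin beta receptor antibody for 5 h. Fixed cells were immunostained for p52 and imaged with DRAQ5 nuclear stain. Translocation is the nuclear to cytoplasmic intensity ratio, […].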

T1 sequence (Q99558 whole entry): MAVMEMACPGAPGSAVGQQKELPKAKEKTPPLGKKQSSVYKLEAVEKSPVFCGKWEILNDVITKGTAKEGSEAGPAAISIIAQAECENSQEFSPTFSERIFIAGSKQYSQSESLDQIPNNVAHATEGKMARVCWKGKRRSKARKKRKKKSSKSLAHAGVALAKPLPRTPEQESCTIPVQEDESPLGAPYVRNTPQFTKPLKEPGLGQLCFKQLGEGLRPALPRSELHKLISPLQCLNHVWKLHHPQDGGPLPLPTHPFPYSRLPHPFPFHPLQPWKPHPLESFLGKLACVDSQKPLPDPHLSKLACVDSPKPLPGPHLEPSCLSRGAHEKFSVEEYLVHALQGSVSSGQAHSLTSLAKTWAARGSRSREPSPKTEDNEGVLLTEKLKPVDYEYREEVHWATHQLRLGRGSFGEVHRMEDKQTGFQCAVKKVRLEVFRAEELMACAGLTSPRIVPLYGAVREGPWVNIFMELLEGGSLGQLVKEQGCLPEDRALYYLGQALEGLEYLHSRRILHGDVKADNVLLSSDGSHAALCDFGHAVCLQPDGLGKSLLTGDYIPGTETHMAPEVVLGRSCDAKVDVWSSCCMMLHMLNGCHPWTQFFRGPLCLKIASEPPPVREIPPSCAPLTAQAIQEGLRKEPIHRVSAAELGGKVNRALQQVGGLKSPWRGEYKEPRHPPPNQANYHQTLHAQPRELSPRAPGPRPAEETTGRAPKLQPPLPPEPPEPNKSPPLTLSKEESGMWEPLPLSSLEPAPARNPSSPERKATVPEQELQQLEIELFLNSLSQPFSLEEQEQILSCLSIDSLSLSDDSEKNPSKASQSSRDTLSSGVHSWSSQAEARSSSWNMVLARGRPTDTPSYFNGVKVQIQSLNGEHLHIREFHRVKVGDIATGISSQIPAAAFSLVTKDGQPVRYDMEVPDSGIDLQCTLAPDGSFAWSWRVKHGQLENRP

SMILES | Ki [1] [nM] | IC50 [2] [nM] | IC50 [3] [nM]
Cc1nccn1-c1cc(C(N)=O)nc(-c2cccc(C#C[C@]3(O)CCN(C)C3=O)c2)n1 [Example 141, 2-[3-[2-[(3R)-3-hydroxy-1-methyl-2-oxo-pyrrolidin-3-yl]ethynyl]phenyl]-6-(2-methylimidazol-1-yl) pyrimidine-4-carboxamide] | 0.37 | ≥ 20000 | 328
CN1CC[C@@](O)(C#Cc2cccc(-c3ncc(N[C@H]4CCOC4)c(C(N)=O)n3)c2)C1=O [Example 142, 2-[3-[2-[(3R)-3-hydroxy-1-methyl-2-oxo-pyrrolidin-3-yl]ethynyl]phenyl]-5-[[(3S)-tetrahydrofuran-3-yl]amino] pyrimidine-4-carboxamide] | 0.24 | ≥ 20000 | 14.8
CN1CC[C@@](O)(C#Cc2cccc(-c3ncc(N[C@@H]4CCOC4)c(C(N)=O)n3)c2)C1=O [Example 143, 2-[3-[2-[(3R)-3-hydroxy-1-methyl-2-oxo-pyrrolidin-3-yl]ethynyl]phenyl]-5-[[(3R)-tetrahydrofuran-3-yl]amino] pyrimidine-4-carboxamide] | 0.05 | ≥ 20000 | 8.12
CN1CC[C@@](O)(C#Cc2cccc(-c3cc(-c4ccnn4C)cc(C(N)=O)n3)c2)C1=O [Example 144, 6-[3-[2-[(3R)-3-hydroxy-1-methyl-2-oxo-pyrrolidin-3-yl]ethynyl]phenyl]-4-(2-methylpyrazol-3-yl) pyridine-2-carboxamide] | 0.69 | ≥ 2000 | 199
CN1CC[C@@](O)(C#Cc2cccc(-c3ncc(N)c(C(N)=O)n3)c2)C1=O [Example 145, 5-amino-2-[3-[2-[(3R)-3-hydroxy-1-methyl-2-oxo-pyrrolidin-3-yl]ethynyl]phenyl]pyrimidine-4-carboxamide] | 0.05 | ≥ 2000 | 38
CN1CC[C@@](O)(C#Cc2cccc(-c3ncc(NCC(F)(F)F)c(C(N)=O)n3)c2)C1=O [Example 146, 2-[3-[2-[(3R)-3-hydroxy-1-methyl-2-oxo-pyrrolidin-3-yl]ethynyl]phenyl]-5-(2,2,2-trifluoroethylamino) pyrimidine-4-carboxamide] | 0.37 | ≥ 20000 | 11.6
COC[C@@H](C)Nc1ccc(-c2cc(C#C[C@]3(O)CCN(C)C3=O)ccc2F)nc1C(N)=O [Example 148, 6-[2-fluoro-5-[2-[(3R)-3-hydroxy-1-methyl-2-oxo-pyrrolidin-3-yl]ethynyl]phenyl]-3-[[(1R)-2-methoxy-1-methyl-ethyl]amino] pyridine-2-carboxamide] | 0.19 | ≥ 2000 | 52.4
COC[C@H](C)Nc1ccc(-c2cc(C#C[C@]3(O)CCN(C)C3=O)ccc2F)nc1C(N)=O [Example 149, 6-[2-fluoro-5-[2-[(3R)-3-hydroxy-1-methyl-2-oxo-pyrrolidin-3-yl]ethynyl]phenyl]-3-[[(1S)-2-methoxy-1-methyl-ethyl]amino]pyridine-2-carboxamide] | 0.88 | ≥ 2000 | 51.1
Cc1nnc([C@](C)(O)C#Cc2cccc(-c3nc(C(N)=O)cc(-n4nccc4C)n3)c2)o1 [Example 150] | 0.99 | > 2000 | 628
Cc1cc(C(N)=O)nc(-c2cccc(C#C[C@]3(O)CCN(C)C3=O)c2)c1F [Example 151, 5-fluoro-6-[3-[2-[(3R)-3-hydroxy-l-methyl-2-oxo-pyrrolidin-3-yl]ethynyl]phenyl]-4-methyl-pyridine-2-carboxamide] | 0.67 | > 2000 | 396
CN1CC[C@@](O)(C#Cc2cc(-c3ccc(N)c(C(N)=O)n3)ccc2F)C1=O [Example 152, 3-amino-6-[4-fluoro-3-[2-[(3R)-3-hydroxy-l-methyl-2-oxo-pyrrolidin-3-yl]ethynyl]phenyl] pyridine-2-carboxamide] | < 0.05 | > 2000 | 46
COCCNc1cnc(-c2cc(C#C[C@]3(O)CCN(C)C3=O)c(F)cc2F)nc1C(N)=O [Example 153, 2-[2,4-difluoro-5[2-[(3R)-3-hydroxy-1-methyl-2-oxo-pyrrolidin-3-yl]ethynyl]phenyl]-5-(2-methoxyethylamino) pyrimidine-4-carboxamide] | 0.1 | > 2000 | 45
Cc1cn[nH]c1-c1cc(C(N)=O)nc(-c2cccc(C#C[C@]3(O)CCN(C)C3=O)c2)n1 [Example 155, 2-[3-[2-[(3R)-3-hydroxy-l-methyl-2-oxo-pyrrolidin-3-yl]ethynyl]phenyl]-6-(4-methyl-1H-pyrazol-5-yl) pyrimidine-4-carboxamide] | < 0.05 | > 2000 | 277
Cc1cc(C(N)=O)nc(-c2cc(C#C[C@]3(O)CCN(C)C3=O)ccc2F)c1 [Example 158, 6-[2-fluoro-5-[2-[(3R)-3-hydroxy-1-methyl-2-oxo-pyrrolidin-3-yl]ethynyl]phenyl]-4-methyl-pyridine-2-carboxamide] | 0.06 | > 2000 | 63
CN1CC[C@@](O)(C#Cc2cccc(-c3cc4c(C(F)(F)F)c[nH]c4c(C(N)=O)n3)c2)C1=O [Example 159, 5-[3-[2-[(3R)-3-hydroxy-l-methyl-2-oxo-pyrrolidin-3-yl]ethynyl]phenyl]-3-(trifluoromethyl)-1H-pyrrolo [2,3-c]pyridine-7-carboxamide] | < 0.05 | > 2000 | 73
CN1CC[C@@](O)(C#Cc2cc(-c3cccc(C(N)=O)n3)c3ncsc3c2)C1=O [Example 160] | 0.5 | > 2000 | 416
CN1CC[C@@](O)(C#Cc2cc(F)cc(-c3nc(C(N)=O)cn4ccnc34)c2)C1=O [Example 161, 8-[3-fluoro-5-[2-[(3R)-3-hydroxy-l-methyl-2-oxo-pyrrolidin-3-yl]ethynyl]phenyl]imidazol [1,2-a]pyrazine-6-carboxamide] | 0.33 | > 2000 | 445
CN1CC[C@@](O)(C#Cc2cccc(-c3cc(OC(F)F)cc(C(N)=O)n3)c2)C1=O [Example 162, 4-(difluoromethoxy)-6-[3-[2-[(3R)-3-hydroxy-l-methyl-2-oxo-pyrrolidin-3-yl]ethynyl]phenyl]pyridine-2-carboxamide] | < 0.05 | > 2000 | 67
Cc1cc(C(N)=O)nc(-c2ccc(F)c(C#C[C@]3(O)CCN(C)C3=O)c2)c1 [Example 164, 6-[4-fluoro-3-[2-[(3R)-3-hydroxy-1-methyl-2-oxo-pyrrolidin-3-yl]ethynyl]phenyl]-4-methyl-pyridine-2-carboxamide] | < 0.05 | > 2000 | 62
Cc1ncc(-c2cccc(C#C[C@]3(O)CCN(C)C3=O)c2)nc1C(N)=O [Example 165, 6-[3-[2-[(3R)-3-hydroxy-1-methyl-2-oxo-pyrrolidin-3-yl]ethynyl]phenyl]-3-methyl-pyrazine-2-carboxamide] | 0.08 | > 2000 | 180
Cc1ccn(-c2cc(C(N)=O)nc(-c3cccc(C#C[C@]4(O)CCN(C)C4=O)c3)n2)n1 [Example 166, 2-[3-[2-[(3R)-3-hydroxy-1-methyl-2-oxo-pyrrolidin-3-yl]ethynyl]phenyl]-6-(3-methylpyrazol-1-yl)pyrimidine-4-carboxamide] | < 0.05 | > 2000 | 59
CN1CC[C@@](O)(C#Cc2cc(F)cc(-c3nc(C(N)=O)c(N)cc3F)c2)C1=O [Example 167, 3-amino-5-fluoro-6-[3-fluoro-5-[2-[(3R)-3-hydroxy-1-methyl-2-oxo-pyrrolidin-3-yl]ethynyl]phenyl]pyridine-2-carboxamide] | < 0.05 | > 2000 | 85
Cc1cc(C(N)=O)nc(-c2cc(F)cc(C#C[C@]3(O)CCN(C)C3=O)c2)c1 [Example 168, 6-[3-fluoro-5-[2-[(3R)-3-hydroxy-1-methyl-2-oxo-pyrrolidin-3-yl]ethynyl]phenyl]-4-methyl-pyridine-2-carboxamide] | 0.16 | > 2000 | 130
COc1cc(-c2cccc(C#C[C@]3(O)CCN(C)C3=O)c2)nc(C(N)=O)c1C [Example 169, 6-[3-[2-[(3R)-3-hydroxy-1-methyl-2-oxo-pyrrolidin-3-yl]ethynyl]phenyl]-4-methoxy-3-methyl-pyridine-2-carboxamide] | 0.55 | > 2000 | 196
Cc1cc(-c2cccc(C#C[C@]3(O)CCN(C)C3=O)c2)nc(C(N)=O)c1N [Example 170, 3-amino-6-[3-[2-[(3R)-3-hydroxy-l-methyl-2-oxo-pyrrolidin-3-yl]ethynyl]phenyl]-4-methyl-pyridine-2-carboxamide] | < 0.1 | > 2000 | 26
COc1cc(C(N)=O)nc(-c2cc(F)cc(C#C[C@]3(O)CCN(C)C3=O)c2)c1 [Example 171, 6-[3-fluoro-5-[2-[(3R)-3-hydroxy-1-methyl-2-oxo-pyrrolidin-3-yl]ethynyl]phenyl]-4-methoxy-pyridine-2-carboxamide] | 0.24 | > 2000 | 132
